Reference: patent US5644025A, “Tetrapeptides deriving from dalbaheptide antibiotics” (Gruppo Lepetit SPA, priority 1990, dated 1997)
Converted amounts (≈) assume the structure as drawn.

Key:
Test in all cases: in vitro antibacterial activity, MIC by dilution test in microtiter
Staph. aureus Tour = format: cell-based; details: strain L 165; Iso-Sensitest broth, inoculum about 5×10^5 cfu/ml, 0.01% bovine serum albumin, 37° C., 18-24 hours
Procedure: (§1) The in vitro antibacterial activity of the compounds is determined by means of standard […] tests in microtiter. Iso-Sensitest broth (Oxoid) is used for all bacteria except streptococci (Todd-Wewitt broth, Difco) and enterococci (Mueller-Hinton, Difco). Broth cultures are diluted so that the final inoculum is about 5×10^5 cfu/ml (colony forming units per ml). All broth microdilution MICs are performed in the presence of 0.01% bovine serum albumin (Pentax fraction V, Sigma).

S. aureus clin. isol. = format: cell-based; details: strain L 561; Iso-Sensitest broth, inoculum about 5×10^5 cfu/ml, 0.01% bovine serum albumin, 37° C., 18-24 hours
Procedure: as §1

[1] = tested on: S. epidermidis ATCC 12,228; format: cell-based; details: strain L 147; Iso-Sensitest broth, inoculum about 5×10^5 cfu/ml, 0.01% bovine serum albumin, 37° C., 18-24 hours
Procedure: as §1

Strep. pyogenes C203 = format: cell-based; details: strain L 49; Todd-Wewitt broth, inoculum about 5×10^5 cfu/ml, 0.01% bovine serum albumin, 37° C., 18-24 hours
Procedure: as §1

[2] = tested on: S. epidermidis clin. isol.; format: cell-based; details: strain L 533; Iso-Sensitest broth, inoculum about 5×10^5 cfu/ml, 0.01% bovine serum albumin, 37° C., 18-24 hours
Procedure: as §1

Strep. pneumoniae UC41 = format: cell-based; details: strain L 44; Todd-Wewitt broth, inoculum about 5×10^5 cfu/ml, 0.01% bovine serum albumin, 37° C., 18-24 hours
Procedure: as §1

[3] = tested on: Enterococcus faecalis ATCC 7,080; format: cell-based; details: strain L 149; Mueller-Hinton broth, inoculum about 5×10^5 cfu/ml, 0.01% bovine serum albumin, 37° C., 18-24 hours
Procedure: as §1

[4] = tested on: S. haemolyticus clin, isol.; format: cell-based; details: strain L 602; Iso-Sensitest broth, inoculum about 5×10^5 cfu/ml, 0.01% bovine serum albumin, 37° C., 18-24 hours
Procedure: as §1

S. aureus Smith = format: cell-based; details: strain L 819; Iso-Sensitest broth, inoculum about 5×10^5 cfu/ml, 0.01% bovine serum albumin, 37° C., 18-24 hours
Procedure: as §1

E. faecalis clin. isol. = format: cell-based, Enterococcus faecalis; details: for MIC: strain L 502, Mueller-Hinton broth, inoculum about 5×10^5 cfu/ml, 0.01% bovine serum albumin, 37° C., 18-24 hours
Procedure: as §1

Row | Molecule | MIC (Staph. aureus Tour) | MIC (S. aureus clin. isol.) | MIC [1] | MIC (Strep. pyogenes C203) | MIC [2] | MIC (Strep. pneumoniae UC41) | MIC [3] | MIC [4] | MIC (S. aureus Smith) | activity against a clinical isolate of Enterococcus faecalis (in words) (E. faecalis clin. isol.) | MIC (E. faecalis clin. isol.)
1 | teicoplanin | 0.13 µg/mL | 8 µg/mL | 8 µg/mL | 0.13 µg/mL | 8 µg/mL | 0.13 µg/mL | 0.13 µg/mL | 32 µg/mL | 0.25 µg/mL | resistant | > 128 µg/mL
2 | N[C@H]1C(=O)N[C@@H]2Cc3ccc(c(Cl)c3)Oc3cc4cc(c3O)Oc3ccc(cc3Cl)[C@@H](O)[C@@H]3NC(=O)[C@H](NC(=O)[C@@H]4NC(=O)[C@@H](NC2=O)c2cc(O)cc(c2)Oc2cc1ccc2O)c1ccc(O)c(c1)-c1c(O)cc(O)cc1[C@@H](C(=O)O)NC3=O [teicoplanin aglycon] | 0.13 µg/mL (≈ 0.108 µM) | 0.13 µg/mL (≈ 0.108 µM) | 0.06 µg/mL (≈ 0.05 µM) | 0.13 µg/mL (≈ 0.108 µM) | 0.016 µg/mL (≈ 0.0133 µM) | 0.13 µg/mL (≈ 0.108 µM) | 0.13 µg/mL (≈ 0.108 µM) | 0.25 µg/mL (≈ 0.209 µM) | 0.06 µg/mL (≈ 0.05 µM) | resistant | > 128 µg/mL
3 | (L-phenylalanyl)^3 -(D-lysyl)^15 -aglucoteicoplanin dalbaheptide methyl ester | 0.13 µg/mL | 0.06 µg/mL | 0.13 µg/mL | 0.25 µg/mL | 0.13 µg/mL | 0.13 µg/mL | 0.5 µg/mL | 0.5 µg/mL | 0.13 µg/mL | surprisingly active | 16 µg/mL
